Patent publication US7767398B2, “Means and methods for diagnosing and treating affective disorders” (Affectis Pharmaceuticals AG, priority 2003, dated 2010)

Key:
mice = test: Porsolt's forced swim test; assay type: in vivo, mouse
Experimental: Further validation of role of P2X7R in affective disorders was performed by examining its expression pattern in response to stress and treatment with antidepressant drugs. […] In parallel, a control group of mice was given vehicle solution (i.e. without paroxetine) using the same treatment regiment while a second control group of mice was left undisturbed and stress-free (i.e. untreated) during the same period of the experiments. At the end of the long-term treatment, part of the mice of each experimental group were tested in the dark/light box (test of anxiety behaviour) and in the Porsolt's forced swim test (test of depressive-like behaviour) to confirm the effectiveness of the treatment (FIG. 5). […] The other part of the experimental groups (i.e. mice without test experience) were decapitated, brains rapidly removed and frozen at −80° C. until usage.
The effects of P2X7R inhibition on depressive-like behaviour was assessed 24 hours and 48 hours after infusion of siRNA, control or vehicle according to the standard test paradigm, the Porsolt's forced swim test (Porsolt et al., Arch. Int. Pharmacodym. 229 (1977), 327-336; Porsolt, Rev. Neurosci. 11 (2000), 53-58). […] Compared to vehicle application, no influence of control double stranded RNA (5′-[…]-3′) on floating behaviour (passive stress coping) was detected. […] This interpretation becomes moreover evident when the effects of antidepressants on passive stress coping behaviour in the forced swim test are visualized (FIG. 5). Passive stress coping behaviour increased after acute intrahippocampal injection (bilateral, dentate gyrus) of siRNA targeting P2X7R. The Porsolt's forced swim test is a standard test used to assess the effectiveness of antidepressants and it has been proven by many studies that the test is selectively sensitive for these effects, given that the right animal model is used. The paradigm has been widely used to test pharmaceutical compounds and to validate animal models of depression, which show an increase in passive behaviour as do the mice where P2X7R has been inhibited (siRNA).
The forced swim test is a standard test that measures primary stress-induced reductions in avoidance or escape, termed behavioural despair. The test is used to determine the effectiveness of antidepressants, test new pharmaceutical compounds and validate animal models of depression (Porsolt et al., Arch. Int. Pharmacodym. 229 (1977), 327-336; Porsolt, Rev. Neurosci. 11 (2000), 53-58; Rénéric et al., Behav. Brain Res. 136 (2002), 521-532; Page et al., Psychopharmacology 165 (2003), 194-201; Kelliher et al., Psychoneuroendocrinology 28 (2003), 332-347). The test consists of placing a mouse for a period of 5 minutes into a glass cylinder containing water. Under such circumstances, the mouse cannot touch the bottom of the cylinder and is thus forced to swim. Time, latency and frequency of struggling versus floating are scored as behavioural parameters. […] Increased struggling (i.e. active attempts to escape) indicates active coping behaviour that can be interpreted as an improvement of depression-like symptoms. For example, treatment with serotonergic antidepressants reduce the total time spent floating (Borsini, Neurosci. Biobehav. Rev. 19 (1995), 377-395; Redrobe and Bourin, Psychopharmacology 138 (1998), 198-206, and in parallel increases the time of active behaviour (i.e. swimming or struggling; Lucki et al., Psychopharmacology 155 (2001), 315-322).
The behaviour of individual mice was assessed using the Porsolt's forced swim test 24 hours after injection of vehicle solution, KN-62, or oATP. A pre-exposure of 5 minutes to the test was performed 15-17 minutes after administration of vehicle, KN-62, or oATP. A description of the Porsolt's forced swim test is given in example 9. […]

P2X7R [1] = biological target: T1, P2X7R (Rattus norvegicus, UniProt Q64663); conditions: concentrations of 10 to 300 μM; cited from earlier work
T1 sequence (Q64663 1-595): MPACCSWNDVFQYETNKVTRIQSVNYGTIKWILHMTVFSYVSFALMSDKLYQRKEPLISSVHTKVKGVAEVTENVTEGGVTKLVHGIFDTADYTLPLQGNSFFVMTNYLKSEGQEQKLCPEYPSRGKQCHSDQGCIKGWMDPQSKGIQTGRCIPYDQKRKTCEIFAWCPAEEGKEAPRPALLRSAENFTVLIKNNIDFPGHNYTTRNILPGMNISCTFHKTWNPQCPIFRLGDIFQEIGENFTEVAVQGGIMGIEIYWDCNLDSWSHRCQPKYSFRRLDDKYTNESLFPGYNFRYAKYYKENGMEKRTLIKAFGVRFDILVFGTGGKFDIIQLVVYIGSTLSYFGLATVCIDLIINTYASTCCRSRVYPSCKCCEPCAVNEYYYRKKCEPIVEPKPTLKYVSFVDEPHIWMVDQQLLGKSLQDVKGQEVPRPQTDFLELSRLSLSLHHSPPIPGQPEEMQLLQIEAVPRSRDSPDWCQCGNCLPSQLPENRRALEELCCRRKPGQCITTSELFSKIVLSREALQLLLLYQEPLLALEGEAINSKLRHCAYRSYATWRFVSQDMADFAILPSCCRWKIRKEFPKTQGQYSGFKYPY

P2X7R [2] = conditions: cited from earlier work
other P2X receptors = conditions: cited from earlier work
human P2X7R = biological target: T2, human P2X7R (Homo sapiens, UniProt Q99572); test: Calcium entry in HT-22 cells overexpressing human P2X7R (Fluo-4 AM); assay type: cell-based; conditions: 20 μM BzATP or 50 μM tenidap
T2 construct: expressed in transfected cells
T2 sequence (Q99572 1-595): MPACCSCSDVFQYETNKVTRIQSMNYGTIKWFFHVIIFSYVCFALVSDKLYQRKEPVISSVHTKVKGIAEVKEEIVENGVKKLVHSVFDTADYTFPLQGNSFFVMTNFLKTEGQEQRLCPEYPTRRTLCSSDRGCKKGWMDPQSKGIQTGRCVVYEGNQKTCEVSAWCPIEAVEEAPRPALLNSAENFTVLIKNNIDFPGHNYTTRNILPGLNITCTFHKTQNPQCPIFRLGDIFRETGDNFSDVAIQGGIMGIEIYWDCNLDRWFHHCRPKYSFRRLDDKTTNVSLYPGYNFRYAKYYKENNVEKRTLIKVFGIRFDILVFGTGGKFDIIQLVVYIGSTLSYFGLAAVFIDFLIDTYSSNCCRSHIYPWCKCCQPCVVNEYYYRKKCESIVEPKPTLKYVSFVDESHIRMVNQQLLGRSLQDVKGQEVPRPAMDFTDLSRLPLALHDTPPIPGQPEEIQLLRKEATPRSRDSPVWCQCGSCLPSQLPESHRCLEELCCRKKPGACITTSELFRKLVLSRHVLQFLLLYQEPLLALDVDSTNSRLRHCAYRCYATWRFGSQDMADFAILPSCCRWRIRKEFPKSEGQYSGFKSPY
Description: Yet another method for identifying P2X7R agonists was devised by generating a immortalised mouse cell line that overexpresses the human P2X7R gene under the control of the human cytomegalovirus (CMV) early promoter/enhancer region. The human P2X7R cDNA was inserted into the pcDNA3.1 vector (Invitrogen) and transfected into the mouse hippocampal cell line HT-22 using Lipofectamine (Invitrogen) according to the manufacturer's specifications. One day after transfection, culture medium containing 500 μg/ml G418 was added to the cells. Resistant clones were separately isolated and cultured 14 days after applying the selection medium.
The agonistic activity of a compound was evaluated by measuring calcium entry in the cells that overexpress the human P2X7R. Cells were cultured in 96 well plates and incubated at 37° C. with 5% C02 DMEM with 10% foetal calf serum (Gibco) until they reached confluence. Cells were then loaded for one hour with 10 μM of Fluo4 AM (Molecular Probes). Fluo-4 AM is a fluorescent dye that binds to intracellular calcium. […] Agonist activity was detected by measuring an increase in calcium influx which results in increased binding to Fluo4 AM and increased fluorescence. Changes in fluorescence signal are measured using a Fluostar Optima plate reader (BMG biotech). […] Thus, both compound stimulated the activity of P2X7R which results in an influx of ions into the cells.

P2X7R [3] = assay type: in vivo, mouse
Experimental: The brains from stress-free mice were shock frozen, cut into 16 μm slices and fixed with paraformaldehyde for 5 minutes. The sections were blocked for 30 minutes at room temperature with 1:10 horse serum. All antibodies were diluted in TBST buffer (Tris-buffered saline with 0.05% Tween-20). The first antibody was used in a dilution 1:200 and incubated overnight. All washes were performed with TBST buffer. As a secondary antibody, an anti-goat IgG biotinylated (Vector Laboratories) was used and detection was performed using the streptavidin-biotin-horse-radish peroxidase complex system (Vector Laboratories) in combination with diaminobencidine. Slides were counterstained with toluidine blue using standard procedures. The same procedure in the absence of the primary antibody was performed as a negative control. As a positive control to test the Preservation of the tissue was verified with an antibody specific for the protein Patched1 (Santa Cruz Biotechnology). Patched1 was used as positive control since it stains all relevant brain structures and is not affected by stress or antidepressants.
At the end of the experiment, the mice were sacrificed and the brains were examined to confirm the location and efficiency of the siRNA injections. For this purpose the brains were cut into sections and the slides were stained by immunohistochemistry using the above mentioned protocols. […]

[4] = 100 nM KN-62 or 10 μM oATP, 1 μl each side, dentate gyrus, 24 hours after injection, DBA/201a mice

Fc1ccc([C@@H]2CCNC[C@H]2COc2ccc3c(c2)OCO3)cc1 [paroxetine]
passive stress coping behaviour (floating) in the forced swim test (mice; paroxetine by gavage, 10 mg/kg bodyweight twice per day, 28 days, male mice): decreased

CC(C)NCC(O)COc1cccc2ccccc12 (racemic) [DL-propanolol]
opening of the cation channel activity of P2X7R (P2X7R [1]): without affecting
pore-forming activity of P2X7R (P2X7R [1]): inhibit the pore-forming activity

CN([C@@H](Cc1ccc(OS(=O)(=O)c2cccc3cnccc23)cc1)C(=O)N1CCN(c2ccccc2)CC1)S(=O)(=O)c1cccc2cnccc12 [KN-62, 1-(N,O-bis[5-isoquinolinesulphonyl]-N-methyl-L-tyrosyl)-4-phenylpiperazine]
active escape attempts (time, frequency, latency of struggling) in the forced swim test (mice; [4]): no changes
passive behaviour (time, frequency, latency of floating) in the forced swim test (mice; [4]): no changes

Nc1ncnc2c1ncn2[C@@H]1O[C@H](COP(=O)(O)OP(=O)(O)OP(=O)(O)O)[C@@H](O)[C@H]1O [ATP]
levels of ATP required to achieve activation of P2X7R (P2X7R [2]): > 1 mM
ATP concentrations at which other P2X receptors activate (other P2X receptors): ≤ 100 µM

NC(=O)N1C(=O)/C(=C(\O)c2cccs2)c2cc(Cl)ccc21 [tenidap, 5-chloro-2,3-dihydro-2-oxo-3-(2-thienylcarbonyl)-indole-1-carboxamide]
calcium influx (Fluo-4 AM fluorescence intensity) (human P2X7R): rapid increase in fluorescence intensity

P2X7R specific siRNA: double stranded siRNA, 5′-GUGGGUCUUGCACAUGAUCTT-3′ and 5′-GAUCAUGUGCAAGACCCACTT-3′ annealed (chemistry not given here)
local inflammation or infiltration at the hippocampus (P2X7R [3]; mouse, in vivo): did not produce any sign of local inflammation or infiltration
inhibition of P2X7R protein expression (P2X7R [3]; siRNA injected near the dentate gyrus, compared to vehicle or control double stranded RNA): 80%
floating behaviour (passive stress coping) in the forced swim test (mice; intrahippocampal bilateral (dentate gyrus), 0.1 nmol/μl, 1 μl per side, 24 hours and 48 hours after infusion): significant increase in passive behaviour

CC(C)NC[C@@H](O)COc1cccc2ccccc12 [D-propanolol]
opening of the cation channel activity of P2X7R (P2X7R [1]): without affecting
pore-forming activity of P2X7R (P2X7R [1]): inhibit the pore-forming activity

CC(CCc1ccccc1)NCC(O)c1ccc(O)c(C(N)=O)c1 (stereo not drawn) [labetolol]
opening of the cation channel activity of P2X7R (P2X7R [1]): without affecting
pore-forming activity of P2X7R (P2X7R [1]): inhibit the pore-forming activity
